# Data taken from patent US20250235501A1, “Methods and Compositions for Treating or Preventing Neurological Injury or Neurological Disorders” (University of Connecticut, priority 2024, published 2025).
# System: NMDARs
# Assay: NMDAR currents in cultured cortical neurons of WT and TRPM2-KO mice (whole cell recording)
# Type: cell-based, mouse
# Method: FIGS. 4O and 4P show the effects of stausporine on NMDAR currents recorded from cortical neurons cultured for 14 days. FIG. 4O show representative NMDAR currents elicited at −80 mV by 10 μM NMDA in WT and TRPM2-KO (gM2KO) neurons treated with or without Stausporine at 1 μM for overnight. FIG. 4P show the average current amplitude (ns, p>0.05; **, p<0.01; ANOVA, Bonferroni's test; mean±SEM, n=11, 10, 10, 12 neurons from 2 mice respectively).
# FIG. 4S show representative NMDAR currents elicited by NMDA in WT and TRPM2-KO neurons treated with or without endosidin2 at 1 μM for overnight.
# FIGS. 5I-5K show the effects of TAT-EE3 on PKC induced changes of NMDAR currents recorded in cortical neurons of WT and TRPM2-KO. Neurons were incubated with 10 μM TAT-SC or TAT-EE3 for overnight before current recording. FIG. 5I show representative NMDAR currents elicited by 10 μM NMDA at −80 mV before and after PMA (1 μM) perfusion for 20 s. TAT-SC or TAT-EE3 10 μM was included in the pipette solution for current recording.
# FIGS. 6A and 6B show the effects of TAT-EE3 on NMDAR currents in WT and gM2KO cortical neurons cultured for 14 days. […] TAT-SC or TAT-EE3 10 μM was included in the pipette solution during current recording.
# Mice pups at P0 were euthanized based on animal protocol. Whole brain was dissected out immediately and immersed in ice-cold Hank's Balanced Salt Solution (HBSS). Meninges were removed thoroughly, and tissue of different brain areas was taken based on purposes. Brain tissue was cut into small pieces and digested with 0.25% trypsin (Thermal Fisher Scientific, 15090-046) in HBSS at 37° C. for 20 min. Digestion solution was quickly removed, and tissue pellets are washed with Neurobasal® Medium (Thermal Fisher Scientific, 21103-049) for 3 times. Cells were resuspended with appropriate amount of Neurobasal® Medium supplemented with 2% B27® supplement (Thermal Fisher Scientific, 17504-044), 3% horse serum (Thermal Fisher Scientific, 16050114), 0.25% L-glutamine (Thermal Fisher Scientific, 25030-081) and 1% penicillin/streptomycin (Thermal Fisher Scientific, 15140-122). Isolated cells were counted and plated on coverslips pre-coated with poly-L-lysine (Sigma-Aldrich, P4707) at a density about 500×10^3 cells/cm2 for OGD and H2O2 treatment, and 100×10^3 cells/cm2 for current recording. Cytosine arabinoside (Sigma-Aldrich, C1768) was added to maintain a concentration at 1 μM to inhibit the proliferation of non-neuronal cells. 24 h after plating, culture medium was changed to Neurobasal® Medium supplemented with 2% B27® supplement, 0.25% L-glutamine and 1% penicillin/streptomycin. The concentration of Cytosine arabinoside (araC) was increased to 2 μM. Medium was changed every 3 days. OGD and H2O2 treatment was conducted at 7th day of culture, and current recording was conducted at 7th, 10th and 14th day of culture.
# Whole cell currents were recorded using an Axopatch 200B amplifier. Data were digitized at 10 or 20 kHz and digitally filtered offline at 1 kHz. Patch electrodes were pulled from borosilicate glass and fire-polished to a resistance of ˜3 MΩ when filled with internal solutions. Series resistance (Rs) was compensated up to 90% to reduce series resistance errors to <5 mV. Cells in which Rs was >10 MΩ were discarded (Du, J., Xie, J., and Yue, L. (2009). Modulation of TRPM2 by acidic pH and the underlying mechanisms for pH sensitivity. J Gen Physiol 134, 471-88).
# For heterologous expression, transfected HEK-293 cells were identified by GFP fluorescence. TRPM2 current recording in transfected HEK-293T cells was performed as we previously reported (Du, J., Xie, J., and Yue, L. (2009). Intracellular calcium activates TRPM2 and its alternative spliced isoforms. Proceedings of the National Academy of Sciences 107, 7239-44; Du, J., Xie, J., and Yue, L. (2009). Modulation of TRPM2 by acidic pH and the underlying mechanisms for pH sensitivity. J Gen Physiol 134, 471-88). […]
# [1] = WT neurons incubated with 10 μM peptide overnight, PMA 1 μM 20 s
substance,measurement,setting,value
"TAT-EE3: membrane permeable disrupting peptide, sequence YGRKKRRQRRREEDTDSSEEMLALAEE (SEQ ID NO: 4)",NMDAR currents in neurons from TRPM2-KO mice,"10 μM peptide overnight and in pipette, neurons cultured 14 days",not from TRPM2-KO mice
same,NMDAR currents in neurons from WT mice,"10 μM peptide overnight and in pipette, neurons cultured 14 days, 10 μM NMDA, -80 mV",efficiently reduced
same,NMDAR current amplitude before and after PMA perfusion,[1],much smaller
same,increase of NMDAR current amplitude induced by PMA,[1],significantly smaller than that in neurons incubated with TAT-SC
same,"PMA-induced changes of NMDAR currents, TAT-SC vs TAT-EE3","neurons from TRPM2-KO mice, 10 μM peptide overnight",no difference
